Reference: PubChem BioAssay (NCI)
Several values for one entry are separate records, joined by “and”; a condition that tells them apart may be missing. Equal values may be shown once.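 96-well plates; 48 h exposure; 5 concentrations. Endpoints by linear interpolation between flanking doses. Not reached: highest tested concentration assigned. GI50 = concentration required for 50% inhibition of growth. TGI: concentration producing complete growth inhibition.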

What was measured:
Experiment in all cases: NCI tumour cell line growth inhibition, 48 h
SK-MEL-2 melanoma = system: SK-MEL-2 melanoma
BT-549 breast = system: BT-549 breast
HOP-62 NSCLC = system: HOP-62 NSCLC
KM12 colon = system: KM12 colon
UACC-62 melanoma = system: UACC-62 melanoma
MDA-MB-435 = system: MDA-MB-435
M14 melanoma = system: M14 melanoma
NCI-H23 lung = system: NCI-H23 lung
DU-145 prostate = system: DU-145 prostate
HT29 colon = system: HT29 colon

SMILES | GI50 (SK-MEL-2 melanoma) | TGI (SK-MEL-2 melanoma) | GI50 (BT-549 breast) | TGI (BT-549 breast) | GI50 (HOP-62 NSCLC) | TGI (HOP-62 NSCLC) | GI50 (KM12 colon) | TGI (KM12 colon) | GI50 (UACC-62 melanoma) | TGI (UACC-62 melanoma) | GI50 (MDA-MB-435) | TGI (MDA-MB-435) | GI50 (M14 melanoma) | TGI (M14 melanoma) | GI50 (NCI-H23 lung) | TGI (NCI-H23 lung) | GI50 (DU-145 prostate) | TGI (DU-145 prostate) | GI50 (HT29 colon) | TGI (HT29 colon)
N#CC(C#N)=CN1CCN(C(=O)c2ccccc2)C1=S | 18.4 µM | 68.4 µM | 22.8 µM | 53 µM | > 100 µM | > 100 µM | 32.3 µM | 86.7 µM | 50.4 µM | > 100 µM | 38.8 µM | > 100 µM | 37.3 µM | > 100 µM | 26.1 µM | 60.1 µM | 24.4 µM | 85.9 µM | 42 µM | > 100 µM
CCOc1cc2ncc(C#N)c(Nc3ccc(F)c(Cl)c3)c2cc1NC(=O)/C=C/CN(C)C | 0.349 µM | > 3.21 µM | 0.665 µM | > 7.78 µM | 1.27 µM | > 10 µM | 1.22 µM | 3.01 µM | 0.449 µM | > 5.09 µM | 0.323 µM | 1.42 µM | 0.312 µM | 1.83 µM | 1.32 µM | > 7.42 µM | 0.05 µM | 1.62 µM | 0.827 µM | > 5.95 µM
CO/N=C1/NC(=O)/C(=C/c2ccc3ncccc3c2)S1 | 12.1 µM | > 25 µM | 9.1 µM | > 25 µM | > 22.6 µM | > 25 µM | > 25 µM | > 25 µM | 8.06 µM | > 25 µM | 15 µM | > 25 µM | 9.85 µM | > 25 µM | 12.2 µM | > 25 µM | 12.3 µM | > 25 µM | 16.8 µM | > 25 µM
Cc1c(CN2CCC(Nc3ncnc4sc(CC(F)(F)F)cc34)CC2)ccc2c1cc(C#N)n2Cc1cn[nH]c1 | 8.97 µM and 9.33 µM | 26.3 µM and 26.5 µM | 2.72 µM and 3.16 µM | 17.5 µM and > 27.4 µM | 3.38 µM and 5.46 µM | 22 µM and > 44.6 µM | 5.36 µM and 3.22 µM | 22.2 µM | 6.53 µM and 8.73 µM | 24.9 µM and > 44.3 µM | 1.99 µM and 3.78 µM | 6.15 µM | 1.77 µM and 3.49 µM | 3.69 µM | 1.33 µM and 2.23 µM | 18.9 µM | 10.3 µM | 23.9 µM and > 40.5 µM | 1.75 µM and 2.45 µM | 5.95 µM
Fc1ccc(-c2nnc3sc(-c4cccc(Cl)c4)nn23)cc1Cl | > 100 µM | > 100 µM | > 100 µM | > 100 µM | > 100 µM | > 100 µM | > 100 µM | > 100 µM | > 100 µM | > 100 µM | > 100 µM | > 100 µM | > 100 µM | > 100 µM | > 100 µM | > 100 µM | > 100 µM | > 100 µM | > 100 µM | > 100 µM
CN1CCN(Cc2ccc(NC(=O)c3[nH]ncc3Nc3ncnc4c3CCC4)cc2)CC1 | 2.14 µM | 6.63 µM | 2.14 µM | 6.97 µM | 2.69 µM | 11.5 µM | 0.767 µM | 11.1 µM | 3.24 µM | 13.5 µM | 1.8 µM | 12.3 µM | 0.948 µM | 13.4 µM | 1.8 µM | 6.79 µM | 1.64 µM | 10.7 µM | 2.17 µM | 8.79 µM
O=C(Nc1ccncc1)C(=O)c1cn(S(=O)(=O)c2ccccc2F)c2ccccc12 | 5.2 µM | > 57.8 µM | 4.41 µM | 54.8 µM | 1.96 µM | 34.3 µM | 0.837 µM | > 100 µM | 0.708 µM | > 36.4 µM | 0.188 µM | 0.695 µM | 0.979 µM | > 100 µM | 0.965 µM | > 34.8 µM | 3.48 µM | 18.5 µM | 0.45 µM | > 31.9 µM
CCS(=O)(=O)c1ccc(OC)c(Nc2nccc(N(C)c3ccc4c(C)[nH]nc4c3)n2)c1 | 5.45 µM | 14.9 µM | 5.76 µM | 14.5 µM | 6.72 µM | > 25 µM | 5.7 µM | > 25 µM | 6.79 µM | 24.5 µM | 5.34 µM | 13.5 µM | 8.46 µM | > 21.8 µM | 6.05 µM | > 25 µM | 8.45 µM | > 25 µM | 5.66 µM | 16.4 µM
CCOC(=O)C(Cc1c[nH]c2cc([N+](=O)[O-])ccc12)(NC(C)=O)C(=O)OCC | 36 µM and 168 µM | 97.9 µM and 401 µM | 64.9 µM and 75 µM | > 682 µM | 161 µM | 461 µM | > 1000 µM | > 1000 µM |  | > 1000 µM | > 649 µM | > 1000 µM | > 931 µM |  | 138 µM | > 1000 µM | > 542 µM | > 1000 µM | > 1000 µM | > 1000 µM
c1cncc(C(Nc2cccc3cccnc23)Nc2cccc3cccnc23)c1 |  | > 100 µM |  | > 100 µM |  | > 100 µM |  | > 100 µM |  | > 100 µM |  | > 100 µM |  | > 100 µM |  | > 100 µM |  | > 100 µM |  | > 100 µM
O=C1C(Cl)=C(N2CCOCC2)C(=O)c2ccccc21 | 3.82 µM | 11.6 µM | 10.8 µM | 23.2 µM | 17.4 µM | 31.3 µM | 13.7 µM | 27.6 µM | 3.06 µM | 10.7 µM | 1.95 µM | 3.72 µM | 5.62 µM | 18.7 µM | 3.32 µM | 20.9 µM | 17.7 µM | 31.9 µM | 5.94 µM | 21.8 µM
Cc1nc(NC(=S)Nc2ccc(F)cc2)sc1C(=O)NNC(=S)Nc1ccc(F)cc1 | 19.4 µM | 60.3 µM | 14.9 µM | 45.2 µM | 26.5 µM | 82.5 µM | 3.11 µM | 13.4 µM | 3.01 µM | 18.9 µM | 7.34 µM | 55.2 µM | 20.2 µM | > 100 µM | 2.78 µM | 9.73 µM | 5.53 µM | 22.3 µM | 8.58 µM | 25.3 µM
